Experimental data: patent publication US5079257A, “Indoloquinone compounds” (priority 1986, dated 1992)
Converted amounts (≈) assume the structure as drawn. Where two headings read alike, the source gives them in different places.

Key:
[1] = tested on: R-1 cells (Rhabdomyosarcoma Cells); test: R-1 activity (bioliquid assay), cytotoxicity; assay type: cell-based; conditions: for IC50: Rhabdomyosarcoma cell
From the text: The indoloquinones II (formula II) have been tested in respect of their cytotoxic activity against L1210 cells and R-1 cells (Rhabdomyosarcoma Cells) in a bioliquid assay at the department of oncology of the Free University of Amsterdam (Table I). […] (Table II). Eight indoloquinones (E.O. 1, E.O. 2, E.O. 4, E.O. 4A, E.O. 8, E.O. 9, E.O. 33 and E.O. 35) have been tested in a panel of five human tumour lines (TNO Rijswijk; Table III).
For the determination of the R-1 activity, Rhabdomyosarcoma cells were brought into Falcon multiwells (growth area: 9.6 cm^2) (~10^6 cells per dish) containing 3 ml of Dulbecco's medium supplemented with 10% Foeto Calf Serum (FCS). […] Thereupon the drug solution was removed and the cells were covered with fresh medium. After 48 hours the cells were trypsinized and counted on a Sysmex microcell counter (CC110).
(§1) The in vitro L1210 and R-1 activities of the indoloquinones (formula III), were also determined in the bioliquid assays as described above.

L1210 cells = test: L1210 activity (bioliquid assay), cytotoxicity; assay type: cell-based; conditions: for IC50: Mus musculus; for ID-50 L1210: 2880 min
From the text: The indoloquinones II (formula II) have been tested in respect of their cytotoxic activity against L1210 cells and R-1 cells (Rhabdomyosarcoma Cells) in a bioliquid assay at the department of oncology of the Free University of Amsterdam (Table I). In addition to this seven compounds (E.O. 1, E.O. 2, E.O. 4, E.O. 7, E.O. 9, E.O. 16 and E.O. 17) have been tested on L1210 activity in a clonogenic assay at TNO, Rijswijk. Further, the lowest active doses of the compounds E.O. 1, E.O. 2, E.O. 4 and E.O. 9 have been determined at TNO Rijswijk, according to the method described by Lamberts et al. [Oncology, 40, 301 (1983)]. (Table II). Eight indoloquinones (E.O. 1, E.O. 2, E.O. 4, E.O. 4A, E.O. 8, E.O. 9, E.O. 33 and E.O. 35) have been tested in a panel of five human tumour lines (TNO Rijswijk; Table III). From the latter group three indoloquinones (E.O. 1, E.O. 4 and E.O. 9) have been selected for a cytotoxicity study, involving five slowly growing human tumour lines (University of Freiburg; Table IV).
For this purpose, L1210 cells were grown, as suspension, in Falcon multi-wells (growth area: 9.6 cm^2) using RPMI supplemented with 15% FCS and 2-mercapto-ethanol (60 μmol) as medium. In this medium, the cells were continuously incubated with the compound to be tested at 37° C. in an atmosphere of 5% CO2 in humidified air for 48 hours. Thereupon they were counted on a Sysmex microcell counter (CC110).
as §1

[2] = Table I, bioliquid assay, read-out: ID-50 R-1
[3] = L1210, Table I, bioliquid assay, 48 hours, read-out: ID-50 L1210
[4] = read-out: ID-50 R-1, Table VIII
[5] = L1210, 48 h, read-out: ID-50 L1210, Table VIII

COC1=CC(=O)c2c(c(COC(C)=O)c(/C=C/CO)n2C)C1=O [E.O. 1B, 3-Acetoxymethyl-5-methoxy-1-methyl-2-[1H-indole-4,7-dione]prop-β-en-α-ol]
IC50 [1, 2]: 0.05 µg/mL (≈ 0.157 µM) | IC50 (L1210 cells; [3]): 0.9 µg/mL (≈ 2.82 µM)

CCNC1=CC(=O)c2c(c(COC(C)=O)c(/C=C/COC(C)=O)n2C)C1=O [E.O. 58, 3-Acetoxymethyl-5-ethylamino-1-methyl-2-[1H-indole-4,7-dione]prop-β-en-α-yl acetate]
IC50 [1, 2]: > 10 µg/mL | IC50 ([1]; Table VI, read-out: ID-50 R-1): > 10 µg/mL | IC50 (L1210 cells; [3]): > 10 µg/mL | ID-50 L1210 (L1210 cells; Table VI): > 10 µg/mL

CC1=C(N2CC2)C(=O)c2c(CO)c(/C=C/CO)n(C)c2C1=O [E.O. 19, 5-Aziridino-1,6-dimethyl-3-hydroxymethyl-2-[1H-indole-4,7-dione]prop-β-en-α-ol]
IC50 ([1]; read-out: ID-50 R-1, Table I, bioliquid assay): 0.1 µg/mL (≈ 0.331 µM) | IC50 [1, 4]: 0.12 µg/mL (≈ 0.397 µM) | IC50 (L1210 cells; [5]): 2 µg/mL (≈ 6.62 µM)

CCNC1=CC(=O)c2c(c(COC(C)=O)c(/C=C/CO)n2C)C1=O [E.O. 59, 3-Acetoxymethyl-5-ethylamino-1-methyl-2-[1H-indole-4,7-dione]prop-β-en-α-ol]
IC50 [1, 2]: > 10 µg/mL | IC50 (L1210 cells; [3]): > 10 µg/mL

CC(=O)OC/C=C/c1c(COC(C)=O)c2c(n1C)C(=O)C=C(N1CC1C)C2=O (stereo not drawn) [E.O. 53, 3-Acetoxymethyl-1-methyl-5-propyleneamino-2-[1H-indole-4,7-dione]prop-β-en-α-yl acetate]
IC50 [1, 4]: 1.4 µg/mL | IC50 (L1210 cells; [5]): 3.4 µg/mL

CC(=O)OC/C=C/c1c(COC(C)=O)c2c(n1C)C(=O)C=C(NCCO)C2=O [E.O. 5, 3-Acetoxymethyl-5-(2-hydroxyethyl-1-amino)-1-methyl-2-[1H-indole-4,7-dione]prop-β-en-αyl acetate]
IC50 [1, 2]: > 10 µg/mL | IC50 ([1]; Table VI, read-out: ID-50 R-1): > 10 µg/mL | IC50 (L1210 cells; [3]): > 10 µg/mL | ID-50 L1210 (L1210 cells; Table VI): > 10 µg/mL

COC1=CC(=O)c2c(c(COC(N)=O)c(/C=C/COC(N)=O)n2C)C1=O [E.O. 3, 3-Carbamoyloxymethyl-5-methoxy-1-methyl-2-[1H-indole-4,7-dione]prop-β-en-α-yl carbamate]
IC50 [1, 2]: > 10 µg/mL | IC50 (L1210 cells; [3]): 8 µg/mL (≈ 22 µM)

COC1=CC(=O)c2c(c(COC(=O)Nc3ccccc3)c(/C=C/COC(=O)Nc3ccccc3)n2C)C1=O [E.O. 38, 5-Methoxy-1-methyl-3-[N-phenylcarbamoyloxymethyl]-2-[1H-indole-4,7-dione]prop-β-en-α-yl N-phenylcarbamate]
IC50 [1, 2]: 8.5 µg/mL (≈ 16.5 µM) | IC50 (L1210 cells; [3]): > 10 µg/mL | ID-50 L1210 (L1210 cells; Table VII): > 10 µg/mL

COC1=CC(=O)c2c(c(CNc3ccccc3)c(/C=C/COC(C)=O)n2C)C1=O [E.O. 39, 5-Methoxy-1-methyl-3-(N-phenylaminomethyl)-2-[1H-indole-4,7-dione]prop-β-en-α-yl acetate]
R-1 activity [1]: rather high R-1 activity | IC50 [1, 2]: 1 µg/mL | IC50 (L1210 cells; [3]): 10 µg/mL

CC(=O)OCc1c2c(n(C)c1/C=C/CO)C(=O)C=C(NCCN(C)C)C2=O [E.O. 48, 3-Acetoxymethyl-5-[2-(N,N-dimethylamino)ethyl-1-amino]-1-methyl-2-[1H-indole-4,7-dione]prop-β-en-α-ol]
IC50 [1, 2]: > 10 µg/mL | IC50 ([1]; Table VI, read-out: ID-50 R-1): > 10 µg/mL | IC50 (L1210 cells; [3]): > 10 µg/mL | ID-50 L1210 (L1210 cells; Table VI): > 10 µg/mL

CC(=O)OCc1c2c(n(C)c1/C=C/CO)C(=O)C=C(NCCc1ccccn1)C2=O [E.O. 62, 3-Acetoxymethyl-1-methyl-5-[2-pyridylethyl-1-amino]-2-[1H-indole-4,7-dione]prop-β-en-α-ol]
IC50 [1, 2]: > 10 µg/mL | IC50 ([1]; Table VI, read-out: ID-50 R-1): > 10 µg/mL | IC50 (L1210 cells; [3]): > 10 µg/mL | ID-50 L1210 (L1210 cells; Table VI): > 10 µg/mL

CC(=O)OC/C=C/c1c(COC(C)=O)c2c(n1C)C(=O)C=C(NCCN(C)C)C2=O [E.O. 47, 3-Acetoxymethyl-5-[2-(N,N-dimethylamino)ethyl-1-amino]-1-methyl-2-[1H-indole-4,7-dione]prop-β-en-α-yl acetate]
R-1 activity [1]: rather high activities | IC50 [1, 2]: 4.4 µg/mL | IC50 (L1210 cells; [3]): > 10 µg/mL | ID-50 L1210 (L1210 cells; Table VI): > 10 µg/mL

Cn1c(/C=C/CO)c(CO)c2c1C(=O)C=C(NCCc1ccccn1)C2=O [E.O. 51, 3-Hydroxymethyl-1-methyl-5-[2-pyridylethyl-1-amino]-2-[1H-indole-4,7-dione]prop-β-en-α-ol]
IC50 [1, 2]: 4.5 µg/mL (≈ 12.2 µM) | IC50 (L1210 cells; [3]): > 10 µg/mL | ID-50 L1210 (L1210 cells; Table VI): > 10 µg/mL
